Data published in ChEMBL document CHEMBL5335844, “Design, synthesis and preliminary biological evaluation of rivastigmine-INDY hybrids as multitarget ligands against Alzheimer's disease by targeting butyrylcholinesterase and DYRK1A/CLK1 kinases” (RSC Med Chem, 2024).

Key:
[1] = target: Cholinesterase (Equus caballus) (UniProt P81908); test: Inhibition of equine serum BuChE at 10 uM using butyrylthiocholine iodide as substrate preincubated for 5 mins followed by substrate addition and measured every min for 10 mins by Ellman's method relative to control; assay type: cell-free; conditions: time 15.0 min
Chain of Cholinesterase (Equus caballus) (P81908 whole entry): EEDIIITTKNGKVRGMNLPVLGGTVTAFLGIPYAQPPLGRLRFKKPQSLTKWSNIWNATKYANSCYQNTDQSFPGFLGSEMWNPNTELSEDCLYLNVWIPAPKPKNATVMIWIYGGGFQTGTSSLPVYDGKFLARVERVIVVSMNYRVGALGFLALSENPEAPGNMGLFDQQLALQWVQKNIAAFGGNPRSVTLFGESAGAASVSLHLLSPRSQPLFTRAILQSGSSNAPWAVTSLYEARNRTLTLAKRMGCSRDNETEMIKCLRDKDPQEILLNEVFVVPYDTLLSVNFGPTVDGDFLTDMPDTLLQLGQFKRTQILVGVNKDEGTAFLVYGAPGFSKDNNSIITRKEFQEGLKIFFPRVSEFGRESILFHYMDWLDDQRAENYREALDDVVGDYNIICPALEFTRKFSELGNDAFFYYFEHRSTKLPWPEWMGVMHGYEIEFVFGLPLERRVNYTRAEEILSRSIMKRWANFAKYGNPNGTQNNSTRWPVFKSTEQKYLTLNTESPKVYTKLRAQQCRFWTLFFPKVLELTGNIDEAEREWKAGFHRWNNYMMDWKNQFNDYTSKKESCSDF

[2] = target: Cholinesterase (Equus caballus, UniProt P81908); test: Inhibition of equine serum BuChE using butyrylthiocholine iodide as substrate preincubated for 5 mins followed by substrate addition and measured every min for 10 mins by Ellman's method; assay type: cell-free
Chain of Cholinesterase (P81908 whole entry): as above

[3] = target: T1, Acetylcholinesterase (Homo sapiens, UniProt P22303); test: Inhibition of human erythrocyte AChE at 10 uM using acetylthiocholine iodide as substrate preincubated for 5 mins followed by substrate addition and measured every min for 10 mins by Ellman's method relative to control; conditions: time 15.0 min
T1 sequence (P22303 whole entry): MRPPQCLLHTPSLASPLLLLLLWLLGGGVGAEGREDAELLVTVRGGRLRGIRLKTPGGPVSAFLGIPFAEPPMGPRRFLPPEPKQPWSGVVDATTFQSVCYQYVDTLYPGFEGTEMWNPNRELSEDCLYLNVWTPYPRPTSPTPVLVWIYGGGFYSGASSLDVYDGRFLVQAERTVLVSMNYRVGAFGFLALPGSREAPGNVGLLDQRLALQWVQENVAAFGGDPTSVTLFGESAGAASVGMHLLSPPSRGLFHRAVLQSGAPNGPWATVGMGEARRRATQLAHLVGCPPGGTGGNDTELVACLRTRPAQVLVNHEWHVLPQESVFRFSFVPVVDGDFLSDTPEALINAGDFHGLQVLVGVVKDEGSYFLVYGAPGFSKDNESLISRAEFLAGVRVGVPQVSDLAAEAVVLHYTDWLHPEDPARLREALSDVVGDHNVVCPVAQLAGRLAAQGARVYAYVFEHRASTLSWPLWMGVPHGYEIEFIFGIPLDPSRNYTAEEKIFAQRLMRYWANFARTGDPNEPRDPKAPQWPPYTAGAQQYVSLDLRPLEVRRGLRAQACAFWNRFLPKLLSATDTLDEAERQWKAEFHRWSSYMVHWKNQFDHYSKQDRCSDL

[4] = target: T1, Acetylcholinesterase; test: Inhibition of human erythrocyte AChE using acetylthiocholine iodide as substrate preincubated for 5 mins followed by substrate addition and measured every min for 10 mins by Ellman's method
[5] = target: T2, Dual specificity protein kinase CLK1 (Homo sapiens, UniProt P49759); test: Inhibition of human CLK1 using ERMRPRKRQGSVRRRV as substrate incubated for 40 mins in presence of Mg/[gamma-33P]-ATP by scintillation counting method
Target sequence in this assay (P49759 whole entry): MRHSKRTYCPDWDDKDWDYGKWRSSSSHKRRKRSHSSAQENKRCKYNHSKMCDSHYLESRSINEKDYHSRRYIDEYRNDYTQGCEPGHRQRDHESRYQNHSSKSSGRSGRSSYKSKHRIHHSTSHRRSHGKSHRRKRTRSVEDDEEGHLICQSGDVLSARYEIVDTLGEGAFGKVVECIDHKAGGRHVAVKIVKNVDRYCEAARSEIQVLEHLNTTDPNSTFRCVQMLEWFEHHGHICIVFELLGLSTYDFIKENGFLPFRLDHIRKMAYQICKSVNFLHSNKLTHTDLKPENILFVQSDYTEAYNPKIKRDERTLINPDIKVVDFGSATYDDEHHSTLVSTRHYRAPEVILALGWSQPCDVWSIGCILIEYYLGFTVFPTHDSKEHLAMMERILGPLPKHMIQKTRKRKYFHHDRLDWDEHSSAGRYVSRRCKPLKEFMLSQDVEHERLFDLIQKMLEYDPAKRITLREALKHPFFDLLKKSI

[6] = target: T3, Dual specificity tyrosine-phosphorylation-regulated kinase 1A (Homo sapiens, UniProt Q13627); test: Inhibition of human DYRK1A using RRRFRPASPLRGPPK as substrate incubated for 40 mins in presence of Mg/[gamma-33P]-ATP by scintillation counting method
[7] = Chromatographic hydrophobicity index, logD of the compound at pH 7.4 by reversed phase HPLC analysis; assay type: physicochemical; conditions: buffer
[8] = Solubility of the compound in PBS at pH 7.4 by HPLC analysis; assay type: physicochemical; conditions: buffer
[9] = target: T3, Dual specificity tyrosine-phosphorylation-regulated kinase 1A; test: Inhibition of human DYRK1A at 10 uM using RRRFRPASPLRGPPK as substrate incubated for 40 mins in presence of Mg/[gamma-33P]-ATP by scintillation counting method relative to control
[10] = target: T2, Dual specificity protein kinase CLK1; test: Inhibition of human CLK1 at 10 uM using ERMRPRKRQGSVRRRV as substrate incubated for 40 mins in presence of Mg/[gamma-33P]-ATP by scintillation counting method relative to control
Target sequence in this assay (P49759 whole entry, looked up): as the sequence (P49759 whole entry) above

CCCCNC(=O)Oc1ccc2c(c1)N(Cc1ccccc1)/C(=C/C(C)=O)S2
inhibition [1]: 22% | IC50 [2]: > 10000 nM

CCN(C)C(=O)Oc1ccc2c(c1)N(CCc1ccccc1)/C(=C/C(C)=O)S2
inhibition [3]: < 10% | IC50 [2]: 439 nM

CCCCCCNC(=O)Oc1ccc2c(c1)N(CC)/C(=C/C(C)=O)S2
IC50 [4]: 14000 nM | IC50 [2]: 2000 nM

CCCCCCCNC(=O)Oc1ccc2c(c1)N(Cc1cccc(OC)c1)/C(=C/C(C)=O)S2
IC50 [2]: 2190 nM

CCN1/C(=C/C(C)=O)Sc2ccc(OC(=O)NC3CCCCC3)cc21
IC50 [4]: 11000 nM | IC50 [2]: 13000 nM

CC(=O)/C=C1\Sc2ccc(O)cc2N1Cc1ccccc1
IC50 [5]: 54 nM | IC50 [6]: 529 nM

CCN(C)C(=O)Oc1ccc2c(c1)N(Cc1ccccc1)/C(=C/C(C)=O)S2
chromatographic logD [7]: 3 | inhibition [3]: < 10% | IC50 [2]: 68 nM | solubility [8]: Soluble

CC(=O)/C=C1\Sc2ccc(O)cc2N1Cc1ccc2ccccc2c1
inhibition [9]: 24% | inhibition [10]: 72%

CCCCCCCNC(=O)Oc1ccc2c(c1)N(Cc1cccc(Cl)c1)/C(=C/C(C)=O)S2
IC50 [2]: 703 nM

CCN1/C(=C/C(C)=O)Sc2ccc(OC(=O)NCc3cccnc3)cc21
IC50 [4]: 34000 nM | IC50 [2]: 12000 nM

CCCCCCCNC(=O)Oc1ccc2c(c1)N(Cc1cccc(C)c1)/C(=C/C(C)=O)S2
IC50 [2]: 761 nM

CCN1/C(=C/C(C)=O)Sc2ccc(OC(=O)NCCc3ccccc3)cc21
IC50 [4]: 20000 nM | IC50 [2]: 6000 nM

CC(=O)/C=C1\Sc2ccc(O)cc2N1CCc1ccccc1
IC50 [5]: 17 nM | IC50 [6]: 106 nM

CCCCCCCNC(=O)Oc1ccc2c(c1)N(Cc1ccc3ccccc3c1)/C(=C/C(C)=O)S2
IC50 [2]: > 10000 nM

CCCCCCCNC(=O)Oc1ccc2c(c1)N(CCc1ccccc1)/C(=C/C(C)=O)S2
chromatographic logD [7]: 4.36 | inhibition [3]: < 10% | IC50 [2]: 26.7 nM

CCCCCCCNC(=O)Oc1ccc2c(c1)N(Cc1ccc(Cl)cc1)/C(=C/C(C)=O)S2
IC50 [2]: 821 nM

COc1cccc(CN2/C(=C/C(C)=O)Sc3ccc(O)cc32)c1
IC50 [5]: 76 nM | IC50 [6]: 883 nM

CCCCCCNC(=O)Oc1ccc2c(c1)N(Cc1ccccc1)/C(=C/C(C)=O)S2
inhibition [3]: < 10% | IC50 [2]: 470 nM

CC(=O)/C=C1\Sc2ccc(O)cc2N1Cc1cccc(C)c1
IC50 [5]: 39 nM | IC50 [6]: 429 nM

CC(=O)/C=C1\Sc2ccc(O)cc2N1Cc1cccc(Cl)c1
IC50 [5]: 33 nM | IC50 [6]: 885 nM

CCCCCCCNC(=O)Oc1ccc2c(c1)N(Cc1ccccc1)/C(=C/C(C)=O)S2
inhibition [3]: < 10% | IC50 [2]: 154 nM

CCCCCCCNC(=O)Oc1ccc2c(c1)N(CC)/C(=C/C(C)=O)S2
IC50 [2]: 1640 nM

CCN1/C(=C/C(C)=O)Sc2ccc(OC(=O)N(C)C)cc21
inhibition [1]: 25% | IC50 [2]: > 10000 nM

CC(=O)/C=C1\Sc2ccc(O)cc2N1Cc1ccc(Cl)cc1
inhibition [9]: 75% | IC50 [5]: 40 nM
